Series [1] relates to influenza virus A/wuhan/359/95 (H3N2). Description: organism not typed. The class given is cell-based.
In series [2] the test system is influenza virus A/Fort Monmouth/1/47 (H1N1). Description: organism not typed. The class given is cell-based. The settings on record: MDCK, read-out: A/Fort Monmouth/1/47(H1N1) IC50.
In a further series the test system is coronavirus HCoV-229E. Description: CPE inhibition assay against HCoV-229E in Huh7.5 cells. Type of series: cell-based.
Series [3] in a line: in vitro. The settings on record: dog.
The nature of series [4]: in vitro. As to conditions: human.
Series [5] relates to Madin-Darby canine kidney cells (MDCK).
In the next series the test system is coronavirus HCoV-OC43. Briefly: qRT-PCR of HCoV-OC43 N protein mRNA in C3A cells. Type of series: cell-based. As to conditions: 24 hours, corrected for GAPDH, read-out: IC50 for inhibitory activity of coronavirus HCoV-OC43.
For the next series, the system named is Huh7.5 cells. Briefly: 50% toxicity concentration (TC50) by CPE assay in Huh7.5 cells. The settings on record: read-out: TC50, Table 10.
Setting [6] is: MDCK, read-out: A/Wuhan/359/1995 (H3N2) IC50.
[7] abbreviates: Human coronavirus 229E, Huh7.5, read-out: HCoV-229E IC50.

In brackets after ≈: the same amount, converted by molar mass. Several values for one entry are separate records, joined by “and”; a condition that tells them apart may be missing. Equal values may be shown once. Read-outs that look alike come from different tables or passages of the source. *1 amine or outer side, *2 acyl side, *3 side chain or, on linkers, in order; H or OH if unused. Where a SMILES comes first, the peptide text is derived from it. [ ]: non-standard residue; d: D form. Phe(ol) = N[CH](CO)Cc1ccccc1; CO = O=C([*:1])[*:2]

`NC(=O)c1ncn([C@@H]2O[C@H](CO)[C@@H](O)[C@H]2O)n1` [RBV, ribavirin]: the IC50 was 2.47 µg/mL and 13.2 µM in series [1] (setting [6]); 1.63 µg/mL in series [1] (MDCK, read-out: A/wuhan/359/95(H3N2) IC50); 0.82 µg/mL (≈ 3.36 µM) in series [2]; 25.1 ± 6.1 µM in the series with coronavirus HCoV-229E (setting [7]). Also, the results for the CC50 in “in vitro [3]” and in “in vitro [4]” were greater than 819 µM and greater than 410 µM, respectively.
As for `CC(C)C[C@H](NC(=O)[C@@H](NC(=O)N[C@@H](Cc1ccccc1)C(=O)O)[C@@H]1CCN=C(N)N1)C(=O)N[C@H](C=O)Cc1ccccc1` [chymostatin, Chymostatin], the IC50 in series [1] (setting [6]) was 329 µM; in the series with coronavirus HCoV-229E (setting [7]) it was 23.7 ± 5.66 µM. In addition, the CC50 in the series “in vitro [3]” is greater than 329 µM; in the series “in vitro [4]” it was greater than 165 µM.
As for `CCOC(=O)C1=C[C@@H](OC(CC)CC)[C@H](NC(C)=O)[C@@H](N)C1` [Oseltamivir], the IC50 in series [1] (MDCK, Table 1; positive drug; read-out: A/wuhan/359/95(H3N2) IC50) came out at 1.63 µg/mL; in series [1] (MDCK, Table 3; positive drug; read-out: A/Wuhan/359/1995 (H3N2) IC50) it was 2.01 µg/mL; in series [1] (MDCK, Table 4; positive drug; read-out: A/Wuhan/359/1995 (H3N2) IC50), 1.77 µg/mL; in series [1] (MDCK; Table 2; positive drugs; read-out: A/wuhan/359/95(H3N2) IC50), 1.63 µg/mL; in series [1] (MDCK; read-out: A/Wuhan/359/1995 (H3N2) IC50), 2.47 µg/mL; in series [2] (Table 2, positive drugs) it was 2.01 µg/mL (≈ 6.43 µM). The TC50 in series [5] (Table 1, positive drug) is reported as 1260 µg/mL (≈ 4030 µM); in series [5] (Table 2, positive drugs), 1260 µg/mL (≈ 4030 µM); in series [5] (Table 3, positive drug) it was 577.4 µg/mL (≈ 1850 µM); in series [5] (Table 4, positive drug), greater than 1000 µg/mL; in series [5] (Table 6, 50E-C18 components and positive drugs), 577.35 µg/mL (≈ 1850 µM).
With `CC(C)[C@H](NC(=O)[C@H](CCCNC(=N)N)NC(=O)N[C@@H](Cc1ccccc1)C(=O)O)C(=O)N[C@H](C=O)CCCNC(=N)N` [Omicsynin B4, Antipain] ({Phe-CO}-Arg-Val-Arg-aldehyde), the IC50 in series [1] (Table 9; CPE method; mean ± SD, three repeats; read-out: A/Wuhan/359/1995 (H3N2) IC50) was determined as 2.43 ± 0.71 µM; in the series on coronavirus HCoV-229E (Table 10, Huh7.5 cells, 100 TCID50, read-out: HCoV-229E IC50), 0.89 ± 0.22 µM; with coronavirus HCoV-OC43 it was 28.7 µM. Moreover, the CC50 in series [5] (read-out: TC50, Table 9, CPE method) is greater than 331 µM; in the series on Huh7.5 cells, greater than 165 µM.
With `CC(C)[C@H](NC(=O)[C@H](CCCNC(=N)N)NC(=O)N[C@@H](Cc1ccccc1)C(=O)O)C(=O)N[C@H](C=O)CCCNC(=N)N` [antipain, Antipain] ({Phe-CO}-Arg-Val-Arg-aldehyde), the IC50 in series [1] (MDCK, Table 9; CPE method; mean ± SD, three repeats; read-out: A/Wuhan/359/1995 (H3N2) IC50) amounted to 3.16 ± 0.94 µM; with coronavirus HCoV-229E (setting [7]) it was 1.57 ± 0.46 µM. Also, the CC50 is greater than 331 µM in “in vitro [3]” and greater than 165 µM in the series “in vitro [4]”.
Take `CC(C)C(NC(=O)C(CCCNC(=N)N)NC(=O)NC(Cc1ccccc1)C(=O)O)C(=O)NC(CO)Cc1ccccc1` (stereo not drawn) [Omicsynin A3, Chymostatinol A] ({Phe-CO}-Arg-Val-[Phe(ol)]; configuration not given here): the values for the IC50 (in series [1] (setting [6]); with coronavirus HCoV-229E (setting [7])) were 87.9 ± 23.7 µM and 57.4 ± 15.6 µM, respectively. For the same molecule, the CC50 in “in vitro [3]” was greater than 336 µM; in the series “in vitro [4]”, greater than 168 µM.
On to `CCOC(=O)C1=C[C@@H](OC(CC)CC)[C@H](NC(C)=O)[C@@H](N)C1` [Oseltamivir Phosphate], for which, in series [1] (MDCK, Table 5; HP20 eluates and positive drugs; read-out: A/Wuhan/359/1995 (H3N2) IC50), the IC50 amounted to 2.01 µg/mL. The same molecule showed a TC50 in series [5] (Table 5, HP20 eluates and positive drugs) of 577.35 µg/mL.

Values taken from patent publication US20230365632A1, “A GROUP OF PEPTIDE DERIVATIVE OMICSYNINS WITH ANTIVIRAL ACTIVITY AND USES THEREOF” (INSTITUTE OF MEDICINAL BIOTECHNOLOGY CHINESE ACADEMY OF …, priority 2020, published 2023).
